Consider three compounds from patent US8207313B2, “Natural products from Vinca” (William Marsh Rice University, priority 2007, dated 2012).

What all share (format): cell-based, Human
In data set [1] the test system is THP-1 cells. In words: THP-1 cell viability, MTS assay. The following applies: THP-1 cells treated with the compound as in the MMP-9 test. The protocol:
In panels B, D, F and H; THP-1 cells were treated with the compound in A, C, E and G, and cell viability was tested with MTS assay.
(In general: Tetrazolium assays rely on reduction of a dye to a coloured formazan, in cell work by metabolically active cells.)

The test system of data set [2] is TNF-α. Description: TNF-α in culture supernatant of LPS-activated THP-1 cells (sandwich ELISA). The note with it: THP-1 cells pre-treated 2 h with compound, 1 μg/ml LPS, supernatant at 24 h, ELISA in duplicate. The protocol: The blocking effect of compounds on cytokines expression (FIG. 2) induced by LPS in monocytic cell lines was then assessed. THP-1 cells were pre-treated with compounds for 2 h and activated with 1 μg/ml LPS. Culture supernatants were collected in 24 h and the TNF-α concentrations were measured using sandwich ELISA. Measurements were done in duplicate. […] Therefore the compounds work to suppress inflammatory response and are potent anti-inflammatory compounds.
(In general: In an ELISA, binding on a coated surface is turned into a signal by an enzyme label.)

The test system of data set [3] is MMP-9. In words: MMP-9 expression in LPS-stimulated THP-1 cells (gelatin zymography). The following applies: THP-1 cells pre-treated 2 h with 5, 10 and 20 μg/ml compound, then 1 μg/ml LPS, supernatant at 24 h; MMP-2 internal control. On the procedure:
Several of the compounds were tested for pharmaceutical activity against two well known inflammatory mediators—MMP-9 and TNF-α. Compounds (1), (2), (3), and (4), were tested. An inflammatory reaction is stimulated with LPS and MMP-2 is used as an internal gene expression control.
The inhibitory effect of flavonoid glycoside compounds on MMP-9 expression (FIG. 1) was assayed in THP-1 cells stimulated with LPS. In panels A, C, E and G; THP-1 cells were pre-treated with 5, 10 and 20 μg/ml of the compound specified for 2 h. After pre-treatment with the relevant compound, the cells were then stimulated with 1 μg/ml LPS. The culture supernatants were collected 24 h after activation and subjected to substrate gel electrophoresis (gelatin zymography) and staining with Coomassie brilliant blue.

Consider `C/C=C(\C)[C@@H](CCC(C)CCCC(C)CCCC(C)C)OC1C(CO)OC(Oc2cc(O)c3c(=O)c(O)c(-c4ccc(OC)c(OC)c4)oc3c2)C(O)C1O` (stereo partly drawn) [Compound (1), 3,5,7-trihydroxy-3′,4′-dimethoxyflavone-7β-D-glucopyranosyl(4″-13′″)2′″,6′″,10′″,14′″-tetramethyl hexadec-14-ene], for which, in data set [1], the cell viability result was “no negative impact on cell viability”. Besides, in data set [2], the TNF-α production result was “inhibited”. Moreover, in data set [3], the “inhibition of MMP-9 expression” value is on record as “inhibits MMP-9 expression in a dose dependant manner”.

Turning to `CCC(C)C(CCC(C)CCCC(C)CCCC(C)C)OC1(CO)COC(COc2c(-c3ccc(OC)cc3)oc3cc(O)cc(O)c3c2=O)C(O)C1O` [Compound (2), 3,5,7-trihydroxy-4′-methoxyflavone-3β-D-glucopyranosyl (4″-13′″)-2′″,6′″,10′″,14′″-tetramethyl hexadecane], the cell viability entry in data set [1] was “no negative impact on cell viability”. In data set [2], the TNF-α production entry was “inhibited”. For the same compound, the “inhibition of MMP-9 expression” value in data set [3] was “inhibits MMP-9 expression in a dose dependant manner”.

Regarding `C=C(CCC=C(C)C)CC/C=C(\C)CC(=O)OCC1OC(Oc2ccc3c(c2)OC(c2ccc(OC)c(OC)c2)CC3=O)C(O)C(O)C1O` (stereo not drawn) [Compound (3)], the cell viability entry in data set [1] is given as “no negative impact on cell viability”. The TNF-α production entry in data set [2] is recorded as “inhibited”. In addition, the “inhibition of MMP-9 expression” value in data set [3] is given as “inhibits MMP-9 expression in a dose dependant manner”.
